# Source: patent publication US8513229B2, “4-Azetidinyl-1-phenyl-cyclohexane antagonists of CCR2” (Janssen Pharmaceutica NV, priority 2009, dated 2013)
# Biological target: T1, CCR2 (Homo sapiens, UniProt P41597)
# T1 construct: host or cells: THP-1 human monocytic cells
# T1 sequence (P41597 1-360 isoform P41597-2): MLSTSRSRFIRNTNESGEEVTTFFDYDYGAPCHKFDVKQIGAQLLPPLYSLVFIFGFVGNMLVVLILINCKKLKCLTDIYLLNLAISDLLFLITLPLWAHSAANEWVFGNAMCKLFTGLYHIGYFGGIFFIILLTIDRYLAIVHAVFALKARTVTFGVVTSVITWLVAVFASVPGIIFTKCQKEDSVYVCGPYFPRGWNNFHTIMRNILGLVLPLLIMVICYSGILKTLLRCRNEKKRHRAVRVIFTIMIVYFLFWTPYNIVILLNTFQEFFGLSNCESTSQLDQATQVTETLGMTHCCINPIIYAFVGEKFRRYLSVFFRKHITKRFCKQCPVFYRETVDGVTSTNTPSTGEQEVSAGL
# Experiment: MCP-1 Receptor Binding Assay in THP-1 Cells
# Settings: 0.5 nM 125I labeled MCP-1, 2 hours at 30° C., read-out: Inhibition of MCP-1 Binding IC50 CCR2 Binding
# Protocol: MCP-1 Receptor Binding Assay in THP-1 Cells
# Human monocytic cell line THP-1 cells were obtained from American Type Culture Collection (Manassas, Va., USA). […] The cell density was maintained […].
# 1 μM cold MCP-1 was used for nonspecific binding.
row,Compound,IC50
1,"CS(=O)(=O)Nc1cccc(C2(O)CCC(N3CC(NC(=O)CNC(=O)c4cccc(C(F)(F)F)c4)C3)CC2)c1 (centres unmarked) [Example 61, N-({1-[4-Hydroxy-4-(3-methanesulfonylamino-phenyl)-cyclohexyl]-azetidin-3-ylcarbamoyl}-methyl)-3-trifluoromethyl-benzamide]",130 nM
2,"Cn1cnc2ccc(C3(O)CCC(N4CC(NC(=O)CNC(=O)c5cccc(C(F)(F)F)c5)C4)CC3)cc21 (centres unmarked) [Example 64, N-({1-[4-Hydroxy-4-(3-methyl-3H-benzoimidazol-5-yl)-cyclohexyl]-azetidin-3-ylcarbamoyl}-methyl)-3-trifluoromethyl-benzamide]",110 nM
3,"CN(C)CCOc1ccc(C2CCC(N3CC(NC(=O)CNC(=O)c4cccc(C(F)(F)F)c4)C3)CC2)cc1 (centres unmarked) [Example 41, N-[(1-{4-[4-(2-Dimethylamino-ethoxy)-phenyl]-cyclohexyl}-azetidin-3-ylcarbamoyl)-methyl]-3-trifluoromethyl-benzamide]",160 nM
4,"O=C(CNC(=O)c1cccc(C(F)(F)F)c1)NC1CN(C2CCC(c3ccc4sc(=O)[nH]c4c3)CC2)C1 (single isomer, unassigned) [Example 6a, N-({1-[4-(2-Oxo-2,3-dihydro-benzothiazol-5-yl)-cyclohexyl]-azetidin-3-ylcarbamoyl}-methyl)-3-trifluoromethyl-benzamide]",200 nM
5,"N-({1-[4-(4,4-bis-Methanesulfonylamino-phenyl)-cyclohexyl]-azetidin-3-ylcarbamoyl}-methyl)-3-trifluoromethyl-benzamide [Example 17]",27 nM
6,"O=C(CNC(=O)c1cccc(C(F)(F)F)c1)NC1CN(C2CCC(O)(c3ccc(C(=O)O)cc3)CC2)C1 (centres unmarked) [Example 45, 4-(1-Hydroxy-4-{3-[2-(3-trifluoromethyl-benzoylamino)-acetylamino]-azetidin-1-yl}-cyclohexyl)-benzoic acid]",6900 nM
7,"COc1cccc(C2(N)CCC(N3CC(NC(=O)CNC(=O)c4cccc(C(F)(F)F)c4)C3)CC2)c1 (single isomer, unassigned) [Example 87a, N-({1-[4-Amino-4-(3-methoxy-phenyl)-cyclohexyl]-azetidin-3-ylcarbamoyl}-methyl)-3-trifluoromethyl-benzamide]",330 nM
8,O=C(O)COc1ccc(C2CCC(N3CC(NC(=O)CNC(=O)c4cccc(C(F)(F)F)c4)C3)CC2)cc1 (centres unmarked) [Example 44],124 nM
9,"O=C(CNC(=O)c1cccc(C(F)(F)F)c1)NC1CN(C2CCC(O)(c3ccc(Cl)cc3)CC2)C1 (centres unmarked) [Example 53, N-({1-[4-(4-Chloro-phenyl)-4-hydroxy-cyclohexyl]-azetidin-3-ylcarbamoyl}-methyl)-3-trifluoromethyl-benzamide]",240 nM
10,"NC1(c2ccc3c(c2)OCO3)CCC(N2CC(NC(=O)CNC(=O)c3cccc(C(F)(F)F)c3)C2)CC1 (single isomer, unassigned) [Example 85a, N-{[1-(4-Amino-4-benzo[1,3]dioxol-5-yl-cyclohexyl)-azetidin-3-ylcarbamoyl]-methyl}-3-trifluoromethyl-benzamide]",280 nM
11,"CS(=O)(=O)Nc1ccc(C2CCC(N3CC(NC(=O)CNC(=O)c4cccc(C(F)(F)F)c4)C3)CC2)cc1 (centres unmarked) [Example 16, N-({1-[4-(4-Methanesulfonylamino-phenyl)-cyclohexyl]-azetidin-3-ylcarbamoyl}-methyl)-3-trifluoromethyl-benzamide]",100 nM
12,"O=C(CNC(=O)c1cc(Br)cc(C(F)(F)F)c1)NC1CN(C2CCC(c3ccccc3)CC2)C1 (centres unmarked) [Example 77, 3-Bromo-N-{[1-(4-phenyl-cyclohexyl)-azetidin-3-ylcarbamoyl]-methyl}-5-trifluoromethyl-benzamide]",380 nM
13,"O=C(O)Cc1ccc(C2CCC(N3CC(NC(=O)CNC(=O)c4cccc(C(F)(F)F)c4)C3)CC2)cc1 (centres unmarked) [Example 25, [4-(4-{3-[2-(3-Trifluoromethyl-benzoylamino)-acetylamino]-azetidin-1-yl}-cyclohexyl)-phenyl]-acetic acid]",320 nM
14,"O=C(CNC(=O)c1cccc(C(F)(F)F)c1)NC1CN(C2CCC(c3ccc(C(=O)O)cc3)CC2)C1 (centres unmarked) [Example 10, 4-(4-{3-[2-(3-Trifluoromethyl-benzoylamino)-acetylamino]-azetidin-1-yl}-cyclohexyl)-benzoic acid]",70 nM
15,"CCOC(=O)c1cccc(C2CCC(N3CC(NC(=O)CNC(=O)c4cccc(C(F)(F)F)c4)C3)CC2)c1 (single isomer, unassigned) [Example 11a, 3-(4-{3-[2-(3-Trifluoromethyl-benzoylamino)-acetylamino]-azetidin-1-yl}-cyclohexyl)-benzoic acid ethyl ester]",135 nM
16,"COc1ccc(C(=O)NCC(=O)NC2CN(C3CCC(c4ccccc4)CC3)C2)cc1C(F)(F)F (centres unmarked) [Example 67, 4-Methoxy-N-{[1-(4-phenyl-cyclohexyl)-azetidin-3-ylcarbamoyl]-methyl}-3-trifluoromethyl-benzamide]",600 nM
17,COC(=O)COc1ccc(C2CCC(N3CC(NC(=O)CNC(=O)c4cccc(C(F)(F)F)c4)C3)CC2)cc1 (centres unmarked) [Example 43],38 nM
18,"O=C(CNC(=O)c1ccc(NCCO)c(C(F)(F)F)c1)NC1CN(C2CCC(c3ccccc3)CC2)C1 (centres unmarked) [Example 72, 4-(2-Hydroxy-ethylamino)-N-{[1-(4-phenyl-cyclohexyl)-azetidin-3-ylcarbamoyl]-methyl}-3-trifluoromethyl-benzamide]",400 nM

# Results, then the compound that gave them:
row,IC50,Compound
1,62 nM,"CN(C)c1ccc(C2(O)CCC(N3CC(NC(=O)CNC(=O)c4cccc(C(F)(F)F)c4)C3)CC2)cc1 (single isomer, unassigned) [Example 54a, N-({1-[4-(4-Dimethylamino-phenyl)-4-hydroxy-cyclohexyl]-azetidin-3-ylcarbamoyl}-methyl)-3-trifluoromethyl-benzamide]"
2,150 nM,"CCn1c(=O)oc2ccc(C3(O)CCC(N4CC(NC(=O)CNC(=O)c5cccc(C(F)(F)F)c5)C4)CC3)cc21 (single isomer, unassigned) [Example 65a, N-({1-[4-(3-Ethyl-2-oxo-2,3-dihydro-benzooxazol-5-yl)-4-hydroxy-cyclohexyl]-azetidin-3-ylcarbamoyl}-methyl)-3-trifluoromethyl-benzamide]"
3,46 nM,"O=C(CNC(=O)c1cccc(C(F)(F)F)c1)NC1CN(C2CCC(O)(c3ccc4c(c3)OCO4)CC2)C1 (single isomer, unassigned) [Example 31a, N-{[1-(4-Benzo[1,3]dioxol-5-yl-4-hydroxy-cyclohexyl)-azetidin-3-ylcarbamoyl]-methyl}-3-trifluoromethyl-benzamide]"
4,21 nM,"COc1ccc(C2(O)CCC(N3CC(NC(=O)CNC(=O)c4cccc(C(F)(F)F)c4)C3)CC2)cc1 (single isomer, unassigned) [Example 36a, N-({1-[4-Hydroxy-4-(4-methoxy-phenyl)-cyclohexyl]-azetidin-3-ylcarbamoyl}-methyl)-3-trifluoromethyl-benzamide]"
5,440 nM,"CS(=O)(=O)c1cccc(C2CCC(N3CC(NC(=O)CNC(=O)c4cccc(C(F)(F)F)c4)C3)CC2)c1 (single isomer, unassigned) [Example 14a, N-({1-[4-(3-Methanesulfonyl-phenyl)-cyclohexyl]-azetidin-3-ylcarbamoyl}-methyl)-3-trifluoromethyl-benzamide]"
